pIC50: −log10 of the molar value.

We go through 26 molecules from ChEMBL document CHEMBL5728748 (2021).

This assay in a line: TarO Biochemical Enzymatic Assay: The TarO biochemical enzymatic assay is a liquid chromatography-mass spectroscopy (LC-MS) based end point assay that measures C55-P-P-GlcNAc (LIPID III) production. The TarO biochemical enzymatic assay was performed in a 384-well microtiter plate (Labcyte) with a reaction volume of 20 μl. The reaction mix contained 0.1 μgs/μl of TarO membrane preparation derived from MRSA COL (lysostaphin/lysozyme treated, centrifuged at 40K rpm, and re-suspended in 50 mM Tris pH 7.5, 10 mM MgCl2), 1500 μM UDP-GlcNAc, x 75 μM C55-P substrates in 83 mM Tris pH 8.0, 6.7 mM MgCl2, 6 mM CHAPS, and 8.3% DMSO buffer. The enzyme reactions were quenched by extraction in 40 μl of 1-pentanol containing 0.04 μM […] C55-PP-GlcNAc, which was used as an internal standard. A 10 μl volume of the quenched reaction mixture (pH≈3) from each well was injected onto a reversed-phase column (C4, 5 m, 2.1×50 mm, Thermo Scientific Biobacis-4) and eluted using a NH4Ac/H2O/MeOH gradient (solvent A: 10 mM NH4Ac in water, pH 5.6; solvent B: NH4Ac (1 M)-Isopropanol (1:90, v/v, pH 5.6). The HPLC conditions were as follows: 15% solvent B for 15 seconds followed by a gradient to 90% solvent B in 90 seconds; then solvent B was kept at 95% for 10 seconds followed by a gradient to 8% solvent B in 0.1 minute. The column was then equilibrated at 15% B for 1 minute before the next injection. The flow rate was kept constant at 600 μl/minute. Mass spectrometric detection was carried out in the negative-ion mode using selected reaction monitoring (SRM). Typical mass spectrometric conditions were as follows: heated capillary temperature, 210° C.; spray voltage, 2500 V; desolvation gas (N2), 40 l/h; auxiliary gas (N2), 35 l/h. Selected ion current (SIC) chromatograms of C55-PP-GlcNAc and internal standard 15C C55-PP-GlcNAc were plotted and integrated using LCQuan incorporated in Xcalibur software (ThermoFinnigan). The linearity of C55-PP-GlcNAc concentration versus mass spectrometric signal (AC55-PP-GlcNAc/A15C-C55-PP-GlcNAc) was determined with purified C55-PP-GlcNAc. The IC50 values were calculated using the nonlinear regression analysis (sigmoidal dose response fit allowing for a variable slope) of percent inhibition data with minimum and maximum values set to 0 and 100 percent.
By pIC50 is commonly meant the negative decadic logarithm of the IC50, by convention in mol/L. Turning to `C[C@H]1CN(C(=O)NCc2cncc3ccccc23)C(=O)O[C@@H]1c1cc(C(F)(F)F)cc(C(F)(F)F)c1` (single isomer, unassigned), the pIC50 is 7.52.

Take `C[C@H]1[C@@H](c2cc(N(C)C)cc(C(F)(F)F)c2)OC(=O)N1C(=O)NCc1cncc2ccccc12`: the pIC50 is 7.52.

`Cc1cccnc1CCNC(=O)N1C(=O)O[C@H](c2cc(C(F)(F)F)cc(C(F)(F)F)c2)[C@@H]1C`: the negative-log IC50 (pIC50) was 5.75.

Consider `C[C@H]1[C@@H](c2ccc(F)c(F)c2)OC(=O)N1C(=O)CCc1cncc2ccccc12`, for which the negative-log IC50 (pIC50) is 5.33.

For the molecule `C[C@H]1[C@@H](c2cc(F)cc(C(F)(F)F)c2)OC(=O)N1C(=O)N(O)Cc1cccc2ccccc12`, the pIC50 is 5.11.

Turning to `Cc1cc(C)cc([C@H]2OC(=O)N(C(=O)CCc3cncc4ccccc34)[C@H]2C)c1`, the negative-log IC50 (pIC50) is 5.97.

`COc1cccc([C@H]2OC(=O)N(C(=O)CCc3cccc4ccccc34)[C@H]2C)n1`: the pIC50 is 5.52.

In the case of `O=C(CCc1cncc2ccccc12)N1CC(c2cccc(F)c2F)OC1=O` (stereo unspecified), the negative-log IC50 (pIC50) was 5.92.

On to `C[C@H]1[C@@H](c2cc(C(F)(F)F)cc(C(F)(F)F)c2)OC(=O)N1C(=O)NCC1CCCc2ccccc21` (stereo partly specified), for which the negative-log IC50 (pIC50) is 6.80.

As to `C[C@H]1[C@@H](c2cccc(OC(F)(F)F)c2)OC(=O)N1C(=O)CCc1cncc2ccccc12`, the pIC50 was 6.85.

`C[C@H]1[C@@H](c2cc(C(F)(F)F)cc(C(F)(F)F)c2)OC(=O)N1C(=O)Cc1cccc2ccccc12`: the negative logarithm of the IC50 (pIC50) is 6.89.

Consider `Cc1ccc2c(n1)N(CCC(=O)N1C(=O)O[C@H](c3cc(F)cc(C(F)(F)F)c3)[C@@H]1C)CCO2`, for which the pIC50 is 6.62.

Turning to `Cc1ccccc1CNC(=O)N1C(=O)O[C@H](c2cc(F)cc(C(F)(F)F)c2)[C@@H]1C`, the negative logarithm of the IC50 (pIC50) was 6.85.

On to `COc1cc(C(F)(F)F)nc([C@@H]2OC(=O)N(C(=O)NCc3cncc4ccccc34)[C@H]2C)n1`, for which the negative logarithm of the IC50 (pIC50) is 5.66.

For the molecule `C[C@H]1[C@@H](c2cc(F)cc(C(F)(F)F)c2)OC(=O)N1C(=O)NCc1ccnc2cccnc12`, the pIC50 is 6.27.

For the molecule `COc1cccnc1CNC(=O)N1C(=O)O[C@H](c2cc(C(F)(F)F)cc(C(F)(F)F)c2)[C@@H]1C`, the pIC50 was 6.04.

As for `C[C@H]1[C@@H](c2cc(F)cc(C(F)(F)F)c2)OC(=O)N1C(=O)NCc1cccc2cncnc12`, the pIC50 is 6.47.

As to `C[C@H]1[C@@H](c2cc(F)cc(C3CC3)c2)OC(=O)N1C(=O)NCc1cncc2ccccc12`, the pIC50 is 6.62.

On to `C[C@H]1[C@@H](c2cc(C(F)(F)F)cc(C(F)(F)F)c2)OC(=O)N1C(=O)NCc1cnc2c(c1)CCC2`, for which the pIC50 was 5.73.

Consider `C[C@H]1[C@@H](c2cccc(F)c2)OC(=O)N1C(=O)CCc1cncc2ccccc12`, for which the negative logarithm of the IC50 (pIC50) was 5.52.

On to `Cc1cc([C@H]2OC(=O)N(C(=O)CCc3cccc4cnccc34)[C@H]2C)cc(C(F)(F)F)c1`, for which the negative logarithm of the IC50 (pIC50) is 6.60.

For the molecule `C[C@H]1[C@@H](c2cc(F)cc(C(F)(F)F)c2)OC(=O)N1C(=O)NCc1cccc2cc[nH]c12`, the pIC50 is 7.22.

With `C[C@H]1[C@@H](c2cc(F)cc(C(F)(F)F)c2)OC(=O)N1C(=O)NCc1cccc2ccccc12`, the pIC50 was 7.70.

Take `C[C@H]1[C@@H](c2cc(C(F)(F)F)cc(C(F)(F)F)c2)OC(=O)N1C(=O)NCc1cccc2nccnc12`: the pIC50 is 7.30.

As to `C[C@H]1[C@@H](c2cc(F)cc(C(F)(F)F)c2)OC(=O)N1C(=O)NCc1cccc2ncccc12`, the pIC50 was 6.07.

In the case of `COc1cc([C@H]2OC(=O)N(C(=O)NCc3cncc4cccnc34)[C@H]2CO)cc(C(F)(F)F)c1`, the pIC50 is 5.91.
